Results: ChEMBL document CHEMBL1139608, “Non-hydroxamate 5-phenylpyrimidine-2,4,6-trione derivatives as selective inhibitors of tumor necrosis factor-alpha converting enzyme” (Bioorg Med Chem Lett, 2005)

Columns and labels:
[1] = biological target: Matrix metalloproteinase-9 (Homo sapiens, UniProt P14780); experiment: In vitro binding affinity against matrix metalloprotease 9
[2] = biological target: Disintegrin and metalloproteinase domain-containing protein 17 (Homo sapiens, UniProt P78536); experiment: In vitro inhibitory concentration against human tumor necrosis factor-alpha converting enzyme
Sequence of Disintegrin and metalloproteinase domain-containing protein 17 (P78536 whole entry, the tested form may be a part): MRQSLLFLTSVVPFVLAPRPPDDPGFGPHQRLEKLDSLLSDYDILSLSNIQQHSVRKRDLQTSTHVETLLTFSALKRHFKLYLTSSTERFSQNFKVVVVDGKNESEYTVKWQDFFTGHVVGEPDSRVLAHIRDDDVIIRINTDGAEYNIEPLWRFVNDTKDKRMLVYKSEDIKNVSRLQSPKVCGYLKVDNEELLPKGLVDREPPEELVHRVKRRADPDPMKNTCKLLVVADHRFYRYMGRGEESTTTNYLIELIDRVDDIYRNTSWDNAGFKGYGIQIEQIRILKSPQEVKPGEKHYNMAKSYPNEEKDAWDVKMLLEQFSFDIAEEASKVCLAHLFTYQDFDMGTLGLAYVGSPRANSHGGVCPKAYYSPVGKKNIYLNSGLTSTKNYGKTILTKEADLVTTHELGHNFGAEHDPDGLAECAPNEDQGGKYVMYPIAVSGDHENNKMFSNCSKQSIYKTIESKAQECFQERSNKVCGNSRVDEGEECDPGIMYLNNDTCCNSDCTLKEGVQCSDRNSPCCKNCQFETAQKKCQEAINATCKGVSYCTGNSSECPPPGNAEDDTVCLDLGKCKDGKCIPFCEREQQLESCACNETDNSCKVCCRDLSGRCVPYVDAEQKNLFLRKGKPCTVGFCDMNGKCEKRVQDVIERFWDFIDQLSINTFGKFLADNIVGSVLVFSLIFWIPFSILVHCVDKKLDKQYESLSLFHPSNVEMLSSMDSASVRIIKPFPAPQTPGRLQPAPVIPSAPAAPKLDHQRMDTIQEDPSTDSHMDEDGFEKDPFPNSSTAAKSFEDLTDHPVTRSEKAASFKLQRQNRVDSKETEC

[3] = In vitro percent inhibition against aggrecanase at the concentration of 1 uM
[4] = biological target: 72 kDa type IV collagenase (Homo sapiens, UniProt P08253); experiment: In vitro binding affinity against matrix metalloprotease 2
Sequence of 72 kDa type IV collagenase (P08253 whole entry): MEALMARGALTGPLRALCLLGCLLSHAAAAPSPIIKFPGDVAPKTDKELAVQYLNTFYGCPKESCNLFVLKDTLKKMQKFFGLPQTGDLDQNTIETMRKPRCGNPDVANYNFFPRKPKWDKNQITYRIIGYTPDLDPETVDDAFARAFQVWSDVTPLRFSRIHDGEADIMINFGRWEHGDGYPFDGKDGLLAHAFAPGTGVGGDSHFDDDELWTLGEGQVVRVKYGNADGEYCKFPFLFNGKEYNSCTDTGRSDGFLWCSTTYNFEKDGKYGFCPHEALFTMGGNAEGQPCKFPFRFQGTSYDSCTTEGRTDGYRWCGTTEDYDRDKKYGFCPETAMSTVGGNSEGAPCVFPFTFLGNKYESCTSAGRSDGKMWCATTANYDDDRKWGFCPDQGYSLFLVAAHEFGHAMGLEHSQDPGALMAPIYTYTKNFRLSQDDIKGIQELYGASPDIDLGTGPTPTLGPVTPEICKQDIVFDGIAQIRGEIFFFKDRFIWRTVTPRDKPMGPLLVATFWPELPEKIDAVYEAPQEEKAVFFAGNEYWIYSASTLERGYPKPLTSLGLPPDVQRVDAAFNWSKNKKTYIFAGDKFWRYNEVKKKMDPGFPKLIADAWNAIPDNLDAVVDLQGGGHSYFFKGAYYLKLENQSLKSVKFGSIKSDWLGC

Collagenase 3 = Collagenase 3 (Homo sapiens, UniProt P45452); experiment: In vitro binding affinity against matrix metalloprotease 13
Interstitial collagenase = biological target: T1, Interstitial collagenase (Homo sapiens, UniProt P03956); experiment: In vitro binding affinity against matrix metalloprotease 1
T1 sequence (P03956 whole entry): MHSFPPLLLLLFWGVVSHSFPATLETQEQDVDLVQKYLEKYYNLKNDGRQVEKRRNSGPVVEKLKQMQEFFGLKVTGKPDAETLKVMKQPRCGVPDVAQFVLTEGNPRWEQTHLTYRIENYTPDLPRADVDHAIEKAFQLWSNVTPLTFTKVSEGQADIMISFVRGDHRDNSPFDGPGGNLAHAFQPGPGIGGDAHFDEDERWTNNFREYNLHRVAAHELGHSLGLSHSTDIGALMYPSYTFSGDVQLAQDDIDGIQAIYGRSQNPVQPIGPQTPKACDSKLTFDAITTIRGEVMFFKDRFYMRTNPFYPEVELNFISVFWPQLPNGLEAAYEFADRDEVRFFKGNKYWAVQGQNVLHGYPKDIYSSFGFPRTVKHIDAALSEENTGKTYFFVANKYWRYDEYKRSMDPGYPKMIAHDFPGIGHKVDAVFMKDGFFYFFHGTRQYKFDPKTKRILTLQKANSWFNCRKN

Sequence of Matrix metalloproteinase-9 (P14780 whole entry, the tested form may be a part): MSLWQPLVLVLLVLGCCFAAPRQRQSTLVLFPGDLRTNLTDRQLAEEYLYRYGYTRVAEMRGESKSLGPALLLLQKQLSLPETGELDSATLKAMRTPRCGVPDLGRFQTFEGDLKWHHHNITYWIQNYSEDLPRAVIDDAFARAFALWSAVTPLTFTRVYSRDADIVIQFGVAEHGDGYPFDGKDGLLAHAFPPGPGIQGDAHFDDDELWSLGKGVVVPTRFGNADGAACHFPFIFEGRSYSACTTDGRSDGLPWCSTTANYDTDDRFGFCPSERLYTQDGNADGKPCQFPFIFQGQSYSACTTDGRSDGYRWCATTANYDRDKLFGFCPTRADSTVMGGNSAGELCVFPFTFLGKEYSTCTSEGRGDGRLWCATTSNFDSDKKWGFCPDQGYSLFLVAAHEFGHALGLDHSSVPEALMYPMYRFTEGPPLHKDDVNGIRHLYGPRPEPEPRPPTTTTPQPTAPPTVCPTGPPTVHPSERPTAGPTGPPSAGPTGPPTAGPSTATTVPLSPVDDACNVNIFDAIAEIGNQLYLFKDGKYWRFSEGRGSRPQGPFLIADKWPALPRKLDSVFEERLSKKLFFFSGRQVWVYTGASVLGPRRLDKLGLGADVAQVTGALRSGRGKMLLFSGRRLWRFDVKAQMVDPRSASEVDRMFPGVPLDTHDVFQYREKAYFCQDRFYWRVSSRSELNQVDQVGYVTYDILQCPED

Compound | Ki [1] [nM] | IC50 [2] [nM] | inhibition [3] [%] | Ki [4] [nM] | Ki (Collagenase 3) [nM] | Ki (Interstitial collagenase) [nM]
Cc1cc(COc2ccc(C3(N4CCN(CC(C)(C)C)CC4)C(=O)NC(=O)NC3=O)cc2)c2ccccc2n1 | > 2130 | 160 | 10 | > 3330 | > 5020 | > 4950
Cc1cc(COc2ccc(C3(N4CCN(CCCc5ccccc5)CC4)C(=O)NC(=O)NC3=O)cc2)c2ccccc2n1 | 2040 | 110 | 12 | 3100 | 5020 | > 4950
Cc1cc(COc2ccc3cc(C4(C)C(=O)NC(=O)NC4=O)ccc3c2)c2ccccc2n1 | – | > 100000 | 1 | 3330 | – | –
Cc1cc(COc2ccc(C3(N4CCN(CCc5ccccc5)CC4)C(=O)NC(=O)NC3=O)cc2)c2ccccc2n1 | 85 | 84 | 38 | 83 | 95 | > 4950
CC1(c2ccc(OCc3ccccc3)cc2)C(=O)NC(=O)NC1=O | > 2130 | > 100000 | 0 | 600 | 4020 | > 4950
Cc1cc(COc2ccc(C3(N4CCN(C(=O)OC(C)(C)C)CC4)C(=O)NC(=O)NC3=O)cc2)c2ccccc2n1 | > 2130 | 160 | 10 | > 3330 | > 5020 | > 4950
CC(=O)c1ccc(N2CCN(C3(c4ccc(OCc5cc(C)nc6ccccc56)cc4)C(=O)NC(=O)NC3=O)CC2)cc1 | > 2130 | 620 | 8 | > 3330 | > 5020 | > 4950
CCCCCCN1CCN(C2(c3ccc(OCc4cc(C)nc5ccccc45)cc3)C(=O)NC(=O)NC2=O)CC1 | > 2130 | 81 | 12 | > 3330 | > 5020 | > 4950
Cc1cc(COc2ccc(C3(N4CCN(Cc5ccccc5)CC4)C(=O)NC(=O)NC3=O)cc2)c2ccccc2n1 | > 2130 | 195 | 5 | > 3330 | > 5020 | > 4950
Cc1cc(COc2ccc(C3(N4CCCCC4)C(=O)NC(=O)NC3=O)cc2)c2ccccc2n1 | > 2130 | 855 | 0 | > 3330 | > 5020 | > 4950
Cc1cc(COc2ccc(C3(N4CCNCC4)C(=O)NC(=O)NC3=O)cc2)c2ccccc2n1 | > 2130 | 1100 | 0 | > 3330 | > 5020 | > 4950
Cc1cc(COc2ccc(C3(N4CCN(C(=O)C(C)(C)C)CC4)C(=O)NC(=O)NC3=O)cc2)c2ccccc2n1 | > 2130 | 5400 | 0 | > 3330 | > 5020 | > 4950
Cc1cc(COc2ccc(C3(N4CCN(C)CC4)C(=O)NC(=O)NC3=O)cc2)c2ccccc2n1 | > 2130 | 91 | 37 | > 3330 | > 5020 | > 4950
CC1(c2ccc(Oc3ccccc3)cc2)C(=O)NC(=O)NC1=O | 52 | – | – | 80 | 65 | –
Cc1cc(COc2ccc(C3(C)C(=O)NC(=O)NC3=O)cc2)c2ccccc2n1 | > 2130 | 1030 | 0 | > 3330 | 5020 | > 4950
Cc1cc(COc2ccc(C3(N4CCN(c5ccc([N+](=O)[O-])cc5)CC4)C(=O)NC(=O)NC3=O)cc2)c2ccccc2n1 | 138 | 2800 | 0 | 116 | 356 | > 4350
CC1(c2ccc(O)cc2)C(=O)NC(=O)NC1=O | 850 | > 100000 | 0 | 2530 | > 5020 | > 4950
Cc1cc(COc2ccc(C3(N4CCOCC4)C(=O)NC(=O)NC3=O)cc2)c2ccccc2n1 | > 2130 | 535 | 1 | > 3330 | > 5020 | > 4950
Cc1cc(COc2ccc(C3(N4CCN(S(C)(=O)=O)CC4)C(=O)NC(=O)NC3=O)cc2)c2ccccc2n1 | > 2130 | 275 | 5 | > 3330 | > 5020 | > 4950
Cc1cc(COc2ccc(C3(N4CCN(C(C)C)CC4)C(=O)NC(=O)NC3=O)cc2)c2ccccc2n1 | > 2130 | 96 | 0 | > 3330 | > 5020 | > 4950
